Experimental data as given in the kinase profiling compilation of Christmann-Franck et al. (2016).

Columns and labels:
[1] = target: NEK6 (human) (UniProt Q9HC98); experiment: radiometric filter-binding kinase assay, Kinaseprofiler; conditions: compound 1.0 µM; ATP 45 µM
[2] = target: ERBB4 (human) (UniProt Q15303); experiment: as above; conditions: compound 1.0 µM; ATP 15 µM
[3] = tested on: HIPK2 (human), Q9H2X6 [I471N]; experiment: as above; conditions: compound 1.0 µM; ATP 10 µM
[4] = target: MELK (human) (UniProt Q14680); experiment: as above; conditions: compound 1.0 µM; ATP 45 µM
[5] = target: DAPK1 (human) (UniProt P53355); experiment: as above; conditions: compound 1.0 µM; ATP 70 µM
[6] = target: MKNK2 (human) (UniProt Q9HBH9); experiment: as above; conditions: compound 1.0 µM; ATP 120 µM
[7] = target: BTK (human) (UniProt Q06187); experiment: as above; conditions: compound 1.0 µM; ATP 200 µM
[8] = target: AURKB (human) (UniProt Q96GD4); experiment: SelectScreen, TR FRET
AURKB (human), sequence (Q96GD4 whole entry, looked up): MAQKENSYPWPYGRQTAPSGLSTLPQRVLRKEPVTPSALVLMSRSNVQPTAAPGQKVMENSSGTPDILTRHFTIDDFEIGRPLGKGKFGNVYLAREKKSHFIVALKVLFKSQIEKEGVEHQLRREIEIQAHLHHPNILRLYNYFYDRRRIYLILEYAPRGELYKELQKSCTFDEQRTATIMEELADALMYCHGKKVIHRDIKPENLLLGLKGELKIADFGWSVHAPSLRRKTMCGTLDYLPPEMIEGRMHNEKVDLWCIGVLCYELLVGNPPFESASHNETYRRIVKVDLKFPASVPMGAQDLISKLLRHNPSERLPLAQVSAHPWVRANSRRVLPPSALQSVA

[9] = target: GRK4 (human) (UniProt P32298); experiment: SelectScreen, TR FRET
GRK4 (human), sequence (P32298 whole entry, looked up): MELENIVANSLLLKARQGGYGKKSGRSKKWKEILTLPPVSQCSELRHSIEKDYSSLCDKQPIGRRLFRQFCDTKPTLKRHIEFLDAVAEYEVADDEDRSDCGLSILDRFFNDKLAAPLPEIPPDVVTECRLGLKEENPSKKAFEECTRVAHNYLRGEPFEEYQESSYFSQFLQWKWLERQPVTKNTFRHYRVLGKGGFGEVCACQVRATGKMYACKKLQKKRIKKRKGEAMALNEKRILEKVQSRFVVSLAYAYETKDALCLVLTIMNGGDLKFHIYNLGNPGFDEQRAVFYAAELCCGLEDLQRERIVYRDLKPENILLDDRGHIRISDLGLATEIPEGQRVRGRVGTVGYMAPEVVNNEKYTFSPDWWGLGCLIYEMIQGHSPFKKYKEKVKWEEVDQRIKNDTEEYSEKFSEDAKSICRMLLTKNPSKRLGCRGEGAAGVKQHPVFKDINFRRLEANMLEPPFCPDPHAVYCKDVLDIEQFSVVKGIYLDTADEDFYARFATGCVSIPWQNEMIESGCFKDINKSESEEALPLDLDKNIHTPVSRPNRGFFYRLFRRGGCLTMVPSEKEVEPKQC

[10] = target: MAPK13 (human) (UniProt O15264); experiment: SelectScreen, TR FRET
[11] = target: ABL1 (human) (UniProt P00519); experiment: SelectScreen, TR FRET
[12] = target: CDC42BPA (human) (UniProt Q5VT25); experiment: SelectScreen, TR FRET
CDC42BPA (human), sequence (Q5VT25 whole entry, looked up): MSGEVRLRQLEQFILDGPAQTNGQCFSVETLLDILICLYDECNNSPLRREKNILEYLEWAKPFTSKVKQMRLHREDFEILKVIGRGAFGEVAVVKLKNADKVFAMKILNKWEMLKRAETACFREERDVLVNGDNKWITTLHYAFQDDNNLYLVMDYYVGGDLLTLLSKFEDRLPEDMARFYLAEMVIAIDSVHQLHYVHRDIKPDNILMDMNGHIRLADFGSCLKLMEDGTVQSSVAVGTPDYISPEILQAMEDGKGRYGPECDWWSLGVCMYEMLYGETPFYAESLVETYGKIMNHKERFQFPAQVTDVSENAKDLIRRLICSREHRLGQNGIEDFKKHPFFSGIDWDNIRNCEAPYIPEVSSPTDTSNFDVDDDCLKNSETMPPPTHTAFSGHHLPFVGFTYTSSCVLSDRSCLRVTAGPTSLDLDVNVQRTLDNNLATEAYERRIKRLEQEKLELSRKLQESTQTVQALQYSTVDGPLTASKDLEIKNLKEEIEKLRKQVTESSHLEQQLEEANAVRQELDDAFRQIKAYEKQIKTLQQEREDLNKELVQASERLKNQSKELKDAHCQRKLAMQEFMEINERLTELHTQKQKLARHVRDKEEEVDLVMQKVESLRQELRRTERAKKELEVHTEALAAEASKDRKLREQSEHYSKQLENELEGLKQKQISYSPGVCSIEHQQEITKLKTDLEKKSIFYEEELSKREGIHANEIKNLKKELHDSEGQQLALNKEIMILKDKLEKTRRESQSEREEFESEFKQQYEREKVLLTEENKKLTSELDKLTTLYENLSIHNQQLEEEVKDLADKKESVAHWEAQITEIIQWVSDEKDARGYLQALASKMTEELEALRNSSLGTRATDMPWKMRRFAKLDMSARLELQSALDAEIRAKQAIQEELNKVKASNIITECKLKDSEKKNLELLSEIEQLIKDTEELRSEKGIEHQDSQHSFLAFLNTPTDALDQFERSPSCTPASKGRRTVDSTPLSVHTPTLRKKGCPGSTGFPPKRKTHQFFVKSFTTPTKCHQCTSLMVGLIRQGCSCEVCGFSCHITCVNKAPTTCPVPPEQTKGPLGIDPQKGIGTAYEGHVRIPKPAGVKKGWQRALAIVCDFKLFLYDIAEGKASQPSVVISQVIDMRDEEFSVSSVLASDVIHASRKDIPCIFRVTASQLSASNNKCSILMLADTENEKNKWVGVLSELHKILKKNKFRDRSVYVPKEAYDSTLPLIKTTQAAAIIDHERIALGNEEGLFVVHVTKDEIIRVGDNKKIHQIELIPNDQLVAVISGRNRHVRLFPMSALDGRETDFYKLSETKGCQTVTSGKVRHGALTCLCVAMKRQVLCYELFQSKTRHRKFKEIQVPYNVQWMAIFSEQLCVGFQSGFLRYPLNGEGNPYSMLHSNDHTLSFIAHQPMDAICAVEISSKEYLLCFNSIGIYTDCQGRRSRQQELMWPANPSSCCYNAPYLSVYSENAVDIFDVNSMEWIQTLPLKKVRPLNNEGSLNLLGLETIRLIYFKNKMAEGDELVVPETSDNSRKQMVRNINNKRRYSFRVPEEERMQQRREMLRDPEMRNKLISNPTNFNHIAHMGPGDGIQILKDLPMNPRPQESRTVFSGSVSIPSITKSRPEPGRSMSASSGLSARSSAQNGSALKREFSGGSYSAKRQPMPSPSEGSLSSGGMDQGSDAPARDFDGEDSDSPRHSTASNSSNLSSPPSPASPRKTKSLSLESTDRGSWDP

[13] = target: IKBKB (human) (UniProt O14920); experiment: SelectScreen, TR FRET
IKBKB (human), sequence (O14920 whole entry, looked up): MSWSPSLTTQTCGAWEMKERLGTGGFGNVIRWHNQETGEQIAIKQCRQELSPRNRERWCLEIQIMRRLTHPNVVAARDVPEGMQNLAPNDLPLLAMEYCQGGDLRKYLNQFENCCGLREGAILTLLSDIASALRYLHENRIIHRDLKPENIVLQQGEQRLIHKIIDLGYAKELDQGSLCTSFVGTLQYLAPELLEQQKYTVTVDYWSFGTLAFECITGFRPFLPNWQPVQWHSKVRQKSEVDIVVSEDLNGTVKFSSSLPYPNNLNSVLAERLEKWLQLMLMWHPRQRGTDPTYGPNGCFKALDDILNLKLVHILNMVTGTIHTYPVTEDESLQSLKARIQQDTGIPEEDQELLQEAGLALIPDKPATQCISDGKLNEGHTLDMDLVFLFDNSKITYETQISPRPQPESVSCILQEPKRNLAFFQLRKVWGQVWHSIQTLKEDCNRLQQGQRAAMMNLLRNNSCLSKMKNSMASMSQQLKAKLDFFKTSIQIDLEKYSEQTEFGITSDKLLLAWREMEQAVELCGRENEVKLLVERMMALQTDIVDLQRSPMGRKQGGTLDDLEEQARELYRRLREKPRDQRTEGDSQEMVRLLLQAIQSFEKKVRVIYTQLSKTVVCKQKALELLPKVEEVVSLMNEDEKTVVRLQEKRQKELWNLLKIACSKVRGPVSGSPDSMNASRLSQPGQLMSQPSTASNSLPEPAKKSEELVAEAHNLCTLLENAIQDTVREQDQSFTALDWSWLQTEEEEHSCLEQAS

[14] = target: EPHB2 (human) (UniProt P29323); experiment: SelectScreen, TR FRET
[15] = target: TSSK1B (human) (UniProt Q9BXA7); experiment: SelectScreen, TR FRET
TSSK1B (human), sequence (Q9BXA7 whole entry, looked up): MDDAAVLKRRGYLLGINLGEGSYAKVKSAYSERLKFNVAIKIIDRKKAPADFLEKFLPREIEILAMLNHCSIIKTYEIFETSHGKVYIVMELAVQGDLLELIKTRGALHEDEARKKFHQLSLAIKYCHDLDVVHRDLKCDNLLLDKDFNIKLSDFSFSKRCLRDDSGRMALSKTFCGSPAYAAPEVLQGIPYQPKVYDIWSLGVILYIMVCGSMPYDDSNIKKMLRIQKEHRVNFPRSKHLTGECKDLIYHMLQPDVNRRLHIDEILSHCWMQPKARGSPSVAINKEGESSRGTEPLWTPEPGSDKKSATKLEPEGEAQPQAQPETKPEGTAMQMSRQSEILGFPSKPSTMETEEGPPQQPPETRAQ

[16] = target: BRAF (human) (UniProt P15056); experiment: SelectScreen, TR FRET
[17] = target: MAP2K6 (human) (UniProt P52564); experiment: SelectScreen, TR FRET
[18] = target: CAMK4 (human) (UniProt Q16566); experiment: SelectScreen, TR FRET
[19] = target: JAK1 JH1 JH2 (human) (UniProt P23458); experiment: SelectScreen, TR FRET
[20] = target: MAPK14 (human) (UniProt Q16539); experiment: SelectScreen, TR FRET
MAPK14 (human), sequence (Q16539 whole entry, looked up): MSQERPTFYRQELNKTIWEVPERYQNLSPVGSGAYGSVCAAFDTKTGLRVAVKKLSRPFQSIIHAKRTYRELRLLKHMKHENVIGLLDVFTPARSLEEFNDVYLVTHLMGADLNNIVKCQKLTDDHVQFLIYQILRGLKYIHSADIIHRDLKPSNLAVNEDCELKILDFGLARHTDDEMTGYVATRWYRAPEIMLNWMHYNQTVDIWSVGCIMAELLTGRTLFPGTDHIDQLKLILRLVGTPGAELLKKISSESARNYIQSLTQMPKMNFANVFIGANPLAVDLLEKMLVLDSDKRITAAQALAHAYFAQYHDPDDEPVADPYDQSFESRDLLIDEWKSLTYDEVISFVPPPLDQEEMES

[21] = target: MST4 (human) (UniProt Q9P289); experiment: SelectScreen, TR FRET
MST4 (human), sequence (Q9P289 whole entry, looked up): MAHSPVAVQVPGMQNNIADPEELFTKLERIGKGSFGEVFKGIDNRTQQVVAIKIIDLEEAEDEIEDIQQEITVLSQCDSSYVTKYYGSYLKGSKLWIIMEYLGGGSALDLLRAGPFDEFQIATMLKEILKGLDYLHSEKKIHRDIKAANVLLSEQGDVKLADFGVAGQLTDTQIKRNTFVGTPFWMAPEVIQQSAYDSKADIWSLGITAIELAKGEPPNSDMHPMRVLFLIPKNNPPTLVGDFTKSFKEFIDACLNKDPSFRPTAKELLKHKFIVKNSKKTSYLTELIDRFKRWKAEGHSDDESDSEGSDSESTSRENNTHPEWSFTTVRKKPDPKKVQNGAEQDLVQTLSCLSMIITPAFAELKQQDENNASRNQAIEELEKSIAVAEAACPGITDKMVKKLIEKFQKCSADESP

[22] = target: SRC (human) (UniProt P12931); experiment: SelectScreen, TR FRET
[23] = target: PRKG2 (human) (UniProt Q13237); experiment: SelectScreen, TR FRET
[24] = target: AKT2 (human) (UniProt P31751); experiment: SelectScreen, TR FRET
[25] = target: IRAK4 (human) (UniProt Q9NWZ3); experiment: SelectScreen, TR FRET
[26] = target: SGK1 (human) (UniProt O00141); experiment: SelectScreen, TR FRET
SGK1 (human), sequence (O00141 whole entry, looked up): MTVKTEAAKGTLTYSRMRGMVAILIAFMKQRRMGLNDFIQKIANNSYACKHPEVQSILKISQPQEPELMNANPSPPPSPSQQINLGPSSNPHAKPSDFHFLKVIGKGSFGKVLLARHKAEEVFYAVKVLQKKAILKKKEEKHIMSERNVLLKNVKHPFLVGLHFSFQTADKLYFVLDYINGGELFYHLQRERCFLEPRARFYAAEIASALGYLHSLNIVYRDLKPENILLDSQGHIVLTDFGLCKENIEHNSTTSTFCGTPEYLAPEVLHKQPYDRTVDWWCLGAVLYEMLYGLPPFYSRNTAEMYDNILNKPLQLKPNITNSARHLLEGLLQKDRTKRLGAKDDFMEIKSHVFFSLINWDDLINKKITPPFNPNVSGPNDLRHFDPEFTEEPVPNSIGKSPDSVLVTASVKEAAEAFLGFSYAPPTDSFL

[27] = target: PRKAA1 PRKAB1 PRKAG1 (human) (UniProt P54619+Q13131+Q9Y478); experiment: SelectScreen, TR FRET; conditions: compound 0.1 µM
[28] = target: PASK (human) (UniProt Q96RG2); experiment: SelectScreen, TR FRET
[29] = target: LRRK2 (human) (UniProt Q5S007); experiment: SelectScreen, TR FRET
[30] = tested on: MET (human), P08581 [M1250T]; experiment: Caliper, Mobility shift assay off-chip

CN(C)S(=O)(=O)Nc1ccc2ccc3ncc(-c4cnn(C)c4)cc3c(=O)c2c1
residual activity [1]: 93%
residual activity [2]: 84%
residual activity [3]: 94%
residual activity [4]: 38%
residual activity [5]: 90%
residual activity [6]: 33%
residual activity [7]: 83%

Cn1cc(-c2cnc3ccc4ccc(CC(=O)NCc5ccccn5)cc4c(=O)c3c2)cn1
inhibition ([8]; compound 0.1 µM): 19.7%
inhibition ([8]; compound 1.0 µM): 51.8%
inhibition ([8]; compound 10.0 µM): 96.4%
inhibition ([9]; compound 0.1 µM): 12.9%
inhibition ([9]; compound 1.0 µM): 11.9%
inhibition ([9]; compound 10.0 µM): 37.1%
inhibition ([10]; compound 0.1 µM): 14.5%
inhibition ([10]; compound 1.0 µM): 15.8%
inhibition ([10]; compound 10.0 µM): 10%
inhibition ([11]; compound 0.1 µM): 19.9%
inhibition ([11]; compound 1.0 µM): 14.1%
inhibition ([11]; compound 10.0 µM): 81.7%
inhibition ([12]; compound 0.1 µM): 6.3%
inhibition ([12]; compound 1.0 µM): 8.7%
inhibition ([12]; compound 10.0 µM): 8.6%
inhibition ([13]; compound 0.1 µM): 4.6%
inhibition ([13]; compound 1.0 µM): 6.6%
inhibition ([13]; compound 10.0 µM): 8.5%
inhibition ([14]; compound 0.1 µM): 8.6%
inhibition ([14]; compound 1.0 µM): 8%
inhibition ([14]; compound 10.0 µM): 3.5%
inhibition ([15]; compound 0.1 µM): 15.5%
inhibition ([15]; compound 1.0 µM): 11.4%
inhibition ([15]; compound 10.0 µM): 24.9%
inhibition ([16]; compound 0.1 µM): 12.3%
inhibition ([16]; compound 1.0 µM): 13.5%
inhibition ([16]; compound 10.0 µM): -0.3%
inhibition ([17]; compound 0.1 µM): 9.7%
inhibition ([17]; compound 1.0 µM): 9.1%
inhibition ([17]; compound 10.0 µM): 7.4%
inhibition ([18]; compound 0.1 µM): 13.6%
inhibition ([18]; compound 1.0 µM): 10.4%
inhibition ([18]; compound 10.0 µM): 0.8%
inhibition ([19]; compound 0.1 µM): 7.6%
inhibition ([19]; compound 1.0 µM): 12.3%
inhibition ([19]; compound 10.0 µM): 9.4%
inhibition ([20]; compound 0.1 µM): 17.9%
inhibition ([20]; compound 1.0 µM): 20.8%
inhibition ([20]; compound 10.0 µM): 20.1%
inhibition ([21]; compound 0.1 µM): 6.9%
inhibition ([21]; compound 1.0 µM): 2.2%
inhibition ([21]; compound 10.0 µM): -39.8%
inhibition ([22]; compound 0.1 µM): 3.7%
inhibition ([22]; compound 1.0 µM): 7.4%
inhibition ([22]; compound 10.0 µM): 15%
inhibition ([23]; compound 0.1 µM): 12.8%
inhibition ([23]; compound 1.0 µM): 14.8%
inhibition ([23]; compound 10.0 µM): 53.5%
inhibition ([24]; compound 0.1 µM): 9.8%
inhibition ([24]; compound 1.0 µM): 11.3%
inhibition ([24]; compound 10.0 µM): 15.6%
inhibition ([25]; compound 0.1 µM): 19.8%
inhibition ([25]; compound 1.0 µM): 25.5%
inhibition ([25]; compound 10.0 µM): 59%
inhibition ([26]; compound 0.1 µM): 10.9%
inhibition ([26]; compound 1.0 µM): 17.4%
inhibition ([26]; compound 10.0 µM): 49.8%
inhibition [27]: 2.1%
inhibition ([28]; compound 0.1 µM): 7.5%
inhibition ([28]; compound 1.0 µM): 5.9%
inhibition ([28]; compound 10.0 µM): 11.1%
inhibition ([29]; compound 0.1 µM): 19.9%
inhibition ([29]; compound 1.0 µM): 25.4%
inhibition ([29]; compound 10.0 µM): 54.3%

O=C(CCc1ccc2ccc3ncc(C4CCNCC4)cc3c(=O)c2c1)NCc1ccccn1
inhibition ([30]; compound 0.1 µM): 87%
inhibition ([30]; compound 1.0 µM): 98.4%
